Assay results reported in patent US20160235752A1, “COMPOSITIONS, METHODS OF USE, AND METHODS OF TREATMENT” (THE UNIVERSITY OF NEW ORLEANS, priority 2013, published 2016).

What follows are compounds tested on Candida albicans (ATCC no. 10231) (assay: MIC determination by broth microdilution (NCCLS), visual scoring). Conditions: Candida albicans, ATCC10231, read-out: MIC80 C. albicans.
Type: cell-based
Procedure: The antifungal activity of the 2,4,6-pyrimidinetrione analogs shown in Schemes 2-6 were evaluated in vitro using Candida albicans (ATCC no. 10231) and Candida glabrata (ATCC no 48435). All assays were done in accordance with NCCLS reference documents^29.
(§1) Master stock concentrations of all tested compounds were prepared to ensure that the maximum final concentration of DMSO was 1% or less. Subsequent 2-fold serial dilutions were made using sterile water to a final concentration of 1280-5.00 μg/ml. A final 10-fold dilution of each drug was made by aliquotting 0.1 mL of each drug dilution into 0.9 mL of fungal suspension in RPMI 1640 media with 10 mM HEPES buffer added (see methodology below), giving final concentrations tested in the range of 128-0.5 μg/ml.
(§2) Antifungal susceptibility studies and minimal inhibitory concentrations (MIC) values for Candida albicans (ATCC no. 10231) and Candida glabrata (ATCC no. 48435) were determined by the broth microdilution technique in accordance with NCCLS reference documents. Microdilution panels ranged from 0.5 to 128 μg/mL. All organisms were subcultured on Sabouraud agar and passaged to ensure purity and viability. The initiating inocula were prepared by picking 5-7 isolated colonies ˜1 mm in diameter from freshly prepared YM agar plates. Colonies were resuspended in sterile water, vortexed and the cell density was adjusted spectrophotometrically to the transmittance of a 0.5 McFarland standard at a wavelength of 530 nm, to yield a stock suspension of 1×10^6-5×10^6 cells/mL. The stock was allowed to hydrate for 30 minutes at room temperature. A working suspension was then made by diluting the stock 1:50 with RPMI 1640 media containing HEPES buffer. The working suspension was used for all assays. The plates were incubated at 35° C. for 48-72 hours in a humid atmosphere. Growth was scored visually. MIC values are defined as the lowest concentration of agent that prevents any discernible growth, ˜80% reduction of growth, as compared with drug-free control wells. All assays were run in parallel using either fluconazole or amphotericin B at the NCCLS recommended concentrations^29 as a drug control (Sigma-Aldrich).

| SMILES | MIC80 [µg/mL] |
| --- | --- |
| CN1C(=O)C(C(=O)c2ccccc2)C(=O)N(C)C1=O [BA3, 5-benzoyl-1,3-dimethylpyrimidine-2,4,6-trione] | > 125 |
| O=C1NC(=O)C(C(=O)c2ccccc2)C(=O)N1 [BA1, 5-benzoyl-pyrimidine-2,4,6-trione] | > 125 |

Same assay, conditions: Table 1, 5-Acyl-2,4,6-pyrimidinetriones; >80% growth inhibition, RPMI, 1% DMSO

| SMILES | MIC80 C. albicans |
| --- | --- |
| O=C1NC(=O)C(C(=O)c2cccc([N+](=O)[O-])c2)C(=O)N1 [BA4] | — (none of the 5-acyl-2,4,6-pyrimidinetriones, 5-alkylated pyrimidinetriones or the 5,5-dialkylated pyrimidinetriones showed antifungal activity through 125 μg/mL) |
| CCCCN1C(=O)NC(=O)C(C(=O)c2ccc(O)cc2)C1=O (centres unmarked) [BA12] | — (none of the 5-acyl-2,4,6-pyrimidinetriones, 5-alkylated pyrimidinetriones or the 5,5-dialkylated pyrimidinetriones showed antifungal activity through 125 μg/mL) |
| CN1C(=O)C(C(=O)c2ccc(O)cc2)C(=O)N(C)C1=O [BA11] | — (none of the 5-acyl-2,4,6-pyrimidinetriones, 5-alkylated pyrimidinetriones or the 5,5-dialkylated pyrimidinetriones showed antifungal activity through 125 μg/mL) |
| CN1C(=O)C(C(=O)c2cccc([N+](=O)[O-])c2)C(=O)N(C)C1=O [BA5] | — (none of the 5-acyl-2,4,6-pyrimidinetriones, 5-alkylated pyrimidinetriones or the 5,5-dialkylated pyrimidinetriones showed antifungal activity through 125 μg/mL) |

Same assay, conditions: Table 2, 5-Arylidene-2,4,6-pyrimidinetriones

| SMILES | MIC80 C. albicans |
| --- | --- |
| COc1cc(OC)c(C=C2C(=O)N(C)C(=O)N(C)C2=O)c(OC)c1 [BA52] | — (none of the 5-acyl-2,4,6-pyrimidinetriones, 5-alkylated pyrimidinetriones or the 5,5-dialkylated pyrimidinetriones showed antifungal activity through 125 μg/mL) |
| O=C1NC(=O)C(=Cc2ccc(O)cc2)C(=O)N1 [BA44] | — (none of the 5-acyl-2,4,6-pyrimidinetriones, 5-alkylated pyrimidinetriones or the 5,5-dialkylated pyrimidinetriones showed antifungal activity through 125 μg/mL) |
| O=C1NC(=O)C(=Cc2ccco2)C(=O)N1 [BA56] | — (none of the 5-acyl-2,4,6-pyrimidinetriones, 5-alkylated pyrimidinetriones or the 5,5-dialkylated pyrimidinetriones showed antifungal activity through 125 μg/mL) |

Same assay, conditions: Table 3, 5-Alkylated Pyrimidinetriones

| SMILES | MIC80 C. albicans |
| --- | --- |
| O=C1NC(=O)C(C2CCCCC2)C(=O)N1 [BA62] | — (none of the 5-acyl-2,4,6-pyrimidinetriones, 5-alkylated pyrimidinetriones or the 5,5-dialkylated pyrimidinetriones showed antifungal activity through 125 μg/mL) |
| CCCCCCCC1C(=O)NC(=O)NC1=O [BA60] | — (none of the 5-acyl-2,4,6-pyrimidinetriones, 5-alkylated pyrimidinetriones or the 5,5-dialkylated pyrimidinetriones showed antifungal activity through 125 μg/mL) |
| O=C1NC(=O)C(CC2CCC(O)CC2)C(=O)N1 (centres unmarked) [BA64] | — (none of the 5-acyl-2,4,6-pyrimidinetriones, 5-alkylated pyrimidinetriones or the 5,5-dialkylated pyrimidinetriones showed antifungal activity through 125 μg/mL) |
| O=C1NC(=O)C(CCCc2ccccc2)C(=O)N1 [BA66] | — (none of the 5-acyl-2,4,6-pyrimidinetriones, 5-alkylated pyrimidinetriones or the 5,5-dialkylated pyrimidinetriones showed antifungal activity through 125 μg/mL) |

Same assay, conditions: Table 5, Schiff Bases of 5-acylpyrimidinetriones

| SMILES | MIC80 C. albicans |
| --- | --- |
| CC(=Nc1ccccc1)C1C(=O)NC(=O)NC1=O [BA92] | — (none of the 5-acyl-2,4,6-pyrimidinetriones, 5-alkylated pyrimidinetriones or the 5,5-dialkylated pyrimidinetriones showed antifungal activity through 125 μg/mL) |
| O=C1NC(=O)C(C=Nc2ccncc2)C(=O)N1 [BA83] | — (none of the 5-acyl-2,4,6-pyrimidinetriones, 5-alkylated pyrimidinetriones or the 5,5-dialkylated pyrimidinetriones showed antifungal activity through 125 μg/mL) |
| CC(=Nc1ccccc1)C1C(=O)N(C)C(=O)N(C)C1=O [BA91] | — (none of the 5-acyl-2,4,6-pyrimidinetriones, 5-alkylated pyrimidinetriones or the 5,5-dialkylated pyrimidinetriones showed antifungal activity through 125 μg/mL) |
| CN1C(=O)C(C=Nc2ccccc2)C(=O)N(C)C1=O [BA90] | — (none of the 5-acyl-2,4,6-pyrimidinetriones, 5-alkylated pyrimidinetriones or the 5,5-dialkylated pyrimidinetriones showed antifungal activity through 125 μg/mL) |
| CN1C(=O)C(C=Nc2ccccn2)C(=O)N(C)C1=O [BA104] | — (none of the 5-acyl-2,4,6-pyrimidinetriones, 5-alkylated pyrimidinetriones or the 5,5-dialkylated pyrimidinetriones showed antifungal activity through 125 μg/mL) |

Same assay, conditions: Table 8, N-Acylhydrazones of 5-Acylpyrimidinetriones

| SMILES | MIC80 C. albicans |
| --- | --- |
| COC(=O)NN=C(C)C1C(=O)NC(=O)NC1=O [BA86] | — (none of the 5-acyl-2,4,6-pyrimidinetriones, 5-alkylated pyrimidinetriones or the 5,5-dialkylated pyrimidinetriones showed antifungal activity through 125 μg/mL) |
| COC(=O)NN=C(c1ccc([N+](=O)[O-])cc1)C1C(=O)NC(=O)NC1=O [BA37] | — (none of the 5-acyl-2,4,6-pyrimidinetriones, 5-alkylated pyrimidinetriones or the 5,5-dialkylated pyrimidinetriones showed antifungal activity through 125 μg/mL) |
| COC(=O)NN=CC1C(=O)NC(=O)NC1=O [BA77] | — (none of the 5-acyl-2,4,6-pyrimidinetriones, 5-alkylated pyrimidinetriones or the 5,5-dialkylated pyrimidinetriones showed antifungal activity through 125 μg/mL) |

The compounds below were run on Candida glabrata (ATCC no. 48435) in the same assay as above. Conditions: Nakaseomyces glabratus, ATCC48435, read-out: MIC80 C. glabrata.
Type: cell-based
Procedure: The antifungal activity of the 2,4,6-pyrimidinetrione analogs shown in Schemes 2-6 were evaluated in vitro using Candida albicans (ATCC no. 10231) and Candida glabrata (ATCC no 48435). All assays were done in accordance with NCCLS reference documents^29. The results of these screenings are summarized in Tables 1-9 as the minimal inhibitory concentrations that inhibited more than 80% fungal growth as compared to the positive controls in 1% DMSO and RPMI media. All MIC screens were done using a visual scoring method as opposed to spectroscopic methods of analysis, due to the physical properties of many of the compounds altering their absorbance spectra relative to the positive, negative and drug controls.
as §1, with “None of the compounds tested over the course of these studies were soluble in water and DMSO was used to dilute each compound tested. Master” for “Master”
as §2

| SMILES | MIC80 [µg/mL] |
| --- | --- |
| CN1C(=O)C(C(=O)c2ccccc2)C(=O)N(C)C1=O [BA3, 5-benzoyl-1,3-dimethylpyrimidine-2,4,6-trione] | > 125 |
| O=C1NC(=O)C(C(=O)c2ccccc2)C(=O)N1 [BA1, 5-benzoyl-pyrimidine-2,4,6-trione] | > 125 |

Same assay, conditions: Table 1, 5-Acyl-2,4,6-pyrimidinetriones; >80% growth inhibition, RPMI, 1% DMSO

| SMILES | MIC80 C. glabrata |
| --- | --- |
| O=C1NC(=O)C(C(=O)c2cccc([N+](=O)[O-])c2)C(=O)N1 [BA4] | — (none of the 5-acyl-2,4,6-pyrimidinetriones, 5-alkylated pyrimidinetriones or the 5,5-dialkylated pyrimidinetriones showed antifungal activity through 125 μg/mL) |
| CCCCN1C(=O)NC(=O)C(C(=O)c2ccc(O)cc2)C1=O (centres unmarked) [BA12] | — (none of the 5-acyl-2,4,6-pyrimidinetriones, 5-alkylated pyrimidinetriones or the 5,5-dialkylated pyrimidinetriones showed antifungal activity through 125 μg/mL) |
| CN1C(=O)C(C(=O)c2ccc(O)cc2)C(=O)N(C)C1=O [BA11] | — (none of the 5-acyl-2,4,6-pyrimidinetriones, 5-alkylated pyrimidinetriones or the 5,5-dialkylated pyrimidinetriones showed antifungal activity through 125 μg/mL) |
| CN1C(=O)C(C(=O)c2cccc([N+](=O)[O-])c2)C(=O)N(C)C1=O [BA5] | — (none of the 5-acyl-2,4,6-pyrimidinetriones, 5-alkylated pyrimidinetriones or the 5,5-dialkylated pyrimidinetriones showed antifungal activity through 125 μg/mL) |

Same assay, conditions: Table 2, 5-Arylidene-2,4,6-pyrimidinetriones

| SMILES | MIC80 C. glabrata |
| --- | --- |
| COc1cc(OC)c(C=C2C(=O)N(C)C(=O)N(C)C2=O)c(OC)c1 [BA52] | — (none of the 5-acyl-2,4,6-pyrimidinetriones, 5-alkylated pyrimidinetriones or the 5,5-dialkylated pyrimidinetriones showed antifungal activity through 125 μg/mL) |
| O=C1NC(=O)C(=Cc2ccc(O)cc2)C(=O)N1 [BA44] | — (none of the 5-acyl-2,4,6-pyrimidinetriones, 5-alkylated pyrimidinetriones or the 5,5-dialkylated pyrimidinetriones showed antifungal activity through 125 μg/mL) |
| O=C1NC(=O)C(=Cc2ccco2)C(=O)N1 [BA56] | — (none of the 5-acyl-2,4,6-pyrimidinetriones, 5-alkylated pyrimidinetriones or the 5,5-dialkylated pyrimidinetriones showed antifungal activity through 125 μg/mL) |

Same assay, conditions: Table 3, 5-Alkylated Pyrimidinetriones

| SMILES | MIC80 C. glabrata |
| --- | --- |
| O=C1NC(=O)C(C2CCCCC2)C(=O)N1 [BA62] | — (none of the 5-acyl-2,4,6-pyrimidinetriones, 5-alkylated pyrimidinetriones or the 5,5-dialkylated pyrimidinetriones showed antifungal activity through 125 μg/mL) |
| CCCCCCCC1C(=O)NC(=O)NC1=O [BA60] | — (none of the 5-acyl-2,4,6-pyrimidinetriones, 5-alkylated pyrimidinetriones or the 5,5-dialkylated pyrimidinetriones showed antifungal activity through 125 μg/mL) |
| O=C1NC(=O)C(CC2CCC(O)CC2)C(=O)N1 (centres unmarked) [BA64] | — (none of the 5-acyl-2,4,6-pyrimidinetriones, 5-alkylated pyrimidinetriones or the 5,5-dialkylated pyrimidinetriones showed antifungal activity through 125 μg/mL) |
| O=C1NC(=O)C(CCCc2ccccc2)C(=O)N1 [BA66] | — (none of the 5-acyl-2,4,6-pyrimidinetriones, 5-alkylated pyrimidinetriones or the 5,5-dialkylated pyrimidinetriones showed antifungal activity through 125 μg/mL) |

Same assay, conditions: Table 5, Schiff Bases of 5-acylpyrimidinetriones

| SMILES | MIC80 C. glabrata |
| --- | --- |
| CC(=Nc1ccccc1)C1C(=O)NC(=O)NC1=O [BA92] | — (none of the 5-acyl-2,4,6-pyrimidinetriones, 5-alkylated pyrimidinetriones or the 5,5-dialkylated pyrimidinetriones showed antifungal activity through 125 μg/mL) |
| O=C1NC(=O)C(C=Nc2ccncc2)C(=O)N1 [BA83] | — (none of the 5-acyl-2,4,6-pyrimidinetriones, 5-alkylated pyrimidinetriones or the 5,5-dialkylated pyrimidinetriones showed antifungal activity through 125 μg/mL) |
| CC(=Nc1ccccc1)C1C(=O)N(C)C(=O)N(C)C1=O [BA91] | — (none of the 5-acyl-2,4,6-pyrimidinetriones, 5-alkylated pyrimidinetriones or the 5,5-dialkylated pyrimidinetriones showed antifungal activity through 125 μg/mL) |
| CN1C(=O)C(C=Nc2ccccc2)C(=O)N(C)C1=O [BA90] | — (none of the 5-acyl-2,4,6-pyrimidinetriones, 5-alkylated pyrimidinetriones or the 5,5-dialkylated pyrimidinetriones showed antifungal activity through 125 μg/mL) |

Same assay, conditions: Table 8, N-Acylhydrazones of 5-Acylpyrimidinetriones

| SMILES | MIC80 C. glabrata |
| --- | --- |
| COC(=O)NN=C(C)C1C(=O)NC(=O)NC1=O [BA86] | — (none of the 5-acyl-2,4,6-pyrimidinetriones, 5-alkylated pyrimidinetriones or the 5,5-dialkylated pyrimidinetriones showed antifungal activity through 125 μg/mL) |
| COC(=O)NN=C(c1ccc([N+](=O)[O-])cc1)C1C(=O)NC(=O)NC1=O [BA37] | — (none of the 5-acyl-2,4,6-pyrimidinetriones, 5-alkylated pyrimidinetriones or the 5,5-dialkylated pyrimidinetriones showed antifungal activity through 125 μg/mL) |
| COC(=O)NN=CC1C(=O)NC(=O)NC1=O [BA77] | — (none of the 5-acyl-2,4,6-pyrimidinetriones, 5-alkylated pyrimidinetriones or the 5,5-dialkylated pyrimidinetriones showed antifungal activity through 125 μg/mL) |
